According to patent US20240238278A1, “Pharmaceutical Composition for Preventing or Treating Fibrosis” (Daewoong Pharmaceutical Co., Ltd., priority 2021, published 2024):

Key:
[1] = Human pharmacokinetics, multiple administration (Day 14); assay type: in vivo; settings: for Accumulation ratio based on AUCτ / CL/Fss / Cmax, ss / MRT / T1/2 / Vz/Fss / tmax, ss (median) / AUCτ / AUC(0-inf): healthy adults; for Accumulation ratio based on AUCτ / CL/Fss / Cmax, ss / MRT / T1/2 / Vz/Fss / tmax, ss (median) / AUC(0-inf): Day 14; for AUCτ: Day 14, 12 hour dosing interval
Protocol: (§1) The formulation used in the clinical trial was prepared in the same manner as in Preparation Examples 1 and 2.

[2] = Human pharmacokinetics, single administration; assay type: in vivo; settings: for CL/F / Cmax / MRT / T1/2 / tmax (median) / AUC(0-inf) / AUC(0-t) / Tmax: healthy adults, empty stomach; for Tmax: read-out: tmax (median)
Protocol: as §1

[3] = Safety/tolerance in healthy adults clinical trial; assay type: in vivo, human; settings: 72 healthy adults, single (100-600 mg) and multiple (25-200 mg twice a day, 14 days) administration
Protocol: as §1

[4] = Pharmacokinetic model prediction of exposure in humans at various oral doses; set-up: species or system human; settings: model-predicted
From the text: Therefore, the optimal pharmacokinetic model parameters that can explain the changes in concentrations at all doses observed using Excel® and WinNonlin8.1 software were estimated for the blood drug concentration obtained in the human multidose clinical trial.

[5] = single oral 100 mg, enteric coated capsules
[6] = single oral 300 mg, enteric coated capsules
[7] = single oral 500 mg, enteric coated tablet
[8] = single oral 600 mg, enteric coated capsules
[9] = human, plasma, single oral 100 mg, enteric coated capsules
[10] = human, plasma, single oral 300 mg, enteric coated capsules
[11] = human, plasma, single oral 500 mg, enteric coated tablet
[12] = human, plasma, single oral 600 mg, enteric coated capsules

Q: Which results are given for `O[C@H]1CCCN[C@@H]1CCCn1cnc2c(Cl)c(Cl)ccc21` [Active component]?
A: Accumulation ratio based on AUCτ ([1]; 25 mg tablet twice a day): 1.94; CL/Fss ([1]; 25 mg tablet twice a day): 122.65 L/h; Cmax, ss ([1]; 25 mg tablet twice a day): 36.50 ng/mL; MRT ([1]; 25 mg tablet twice a day): 10.53 h; T1/2 ([1]; 25 mg tablet twice a day): 7.63 h; Vz/Fss ([1]; 25 mg tablet twice a day): 1433.79 L; tmax, ss (median) ([1]; 25 mg tablet twice a day): 2.00 h; AUCτ ([1]; 25 mg tablet twice a day): 183.32 ng·h/mL; Accumulation ratio based on AUCτ ([1]; 50 mg tablet twice a day): 2.33; CL/Fss ([1]; 50 mg tablet twice a day): 116.53 L/h; Cmax, ss ([1]; 50 mg tablet twice a day): 102.61 ng/mL; MRT ([1]; 50 mg tablet twice a day): 8.44 h; T1/2 ([1]; 50 mg tablet twice a day): 4.40 h; Vz/Fss ([1]; 50 mg tablet twice a day): 738.97 L; AUCτ ([1]; 50 mg tablet twice a day): 429.09 ng·h/mL; Accumulation ratio based on AUCτ ([1]; 100 mg tablet twice a day): 1.88; CL/Fss ([1]; 100 mg tablet twice a day): 161.97 L/h; Cmax, ss ([1]; 100 mg tablet twice a day): 151.27 ng/mL; MRT ([1]; 100 mg tablet twice a day): 10.17 h; T1/2 ([1]; 100 mg tablet twice a day): 9.26 h; Vz/Fss ([1]; 100 mg tablet twice a day): 2163.04 L; tmax, ss (median) ([1]; 100 mg tablet twice a day): 3.00 h; AUCτ ([1]; 100 mg tablet twice a day): 617.40 ng·h/mL; Accumulation ratio based on AUCτ ([1]; 200 mg tablet twice a day): 3.75; CL/Fss ([1]; 200 mg tablet twice a day): 66.39 L/h; Cmax, ss ([1]; 200 mg tablet twice a day): 595.35 ng/mL; MRT ([1]; 200 mg tablet twice a day): 12.07 h; T1/2 ([1]; 200 mg tablet twice a day): 12.35 h; Vz/Fss ([1]; 200 mg tablet twice a day): 1182.53 L; AUCτ ([1]; 200 mg tablet twice a day): 3012.35 ng·h/mL; AUC(0-inf) ([1]; human, plasma, oral, 25 mg tablet twice a day): 301 ng·h/mL; AUC(0-inf) ([1]; human, plasma, oral, 50 mg tablet twice a day): 565 ng·h/mL; AUC(0-inf) ([1]; human, plasma, oral, 100 mg tablet twice a day): 888 ng·h/mL; AUC(0-inf) ([1]; human, plasma, oral, 200 mg tablet twice a day): 4750 ng·h/mL; AUC ([1]; human, plasma, oral, multiple administration, 14th day, across 25-200 mg, read-out: geometric mean dose interval in vivo exposure (AUCτ)): 183 to 3010 ng·h/mL; half-life ([1]; human, plasma, oral, multiple administration, 14th day, across 25-200 mg, read-out: geometric mean half-life): 4.4 to 12.3 h; relationship of plasma concentrations to dose ([1]; multiple administration, dose range of 25 mg to 200 mg): dose linear relationship; CL/F [2, 5]: 156.48 L/h; Cmax [2, 5]: 123.96 ng/mL; MRT [2, 5]: 9.26 h; T1/2 [2, 5]: 6.91 h; CL/F [2, 6]: 196.59 L/h; Cmax [2, 6]: 276.80 ng/mL; MRT [2, 6]: 9.75 h; T1/2 [2, 6]: 8.33 h; tmax (median) [2, 6]: 2.50 h; CL/F [2, 7]: 213.75 L/h; Cmax [2, 7]: 513.56 ng/mL; MRT [2, 7]: 9.57 h; T1/2 [2, 7]: 7.80 h; tmax (median) [2, 7]: 3.01 h; CL/F [2, 8]: 312.07 L/h; Cmax [2, 8]: 213.43 ng/mL; MRT [2, 8]: 9.79 h; T1/2 [2, 8]: 9.90 h; half-life ([2]; human, plasma, oral, single administration, across 100-600 mg doses, read-out: geometric mean half-life): 6.91 to 9.9 h; AUC(0-inf) [2, 9]: 639 ng·h/mL; AUC(0-t) [2, 9]: 594 ng·h/mL; Tmax [2, 9]: 3 h; AUC(0-inf) [2, 10]: 1530 ng·h/mL; AUC(0-t) [2, 10]: 1480 ng·h/mL; AUC(0-inf) [2, 11]: 2340 ng·h/mL; AUC(0-t) [2, 11]: 2280 ng·h/mL; AUC(0-inf) [2, 12]: 1920 ng·h/mL; AUC(0-t) [2, 12]: 1010 ng·h/mL; Tmax [2, 12]: 2 h; relationship of plasma concentrations to dose ([2]; single administration): dose proportional relationship; serious abnormal signs or side effects [3]: no serious abnormal signs or side effects; AUCtau ([4]; oral Dose 50 mg): 231.6352 ng·h/mL; AUCtau—24 hr ([4]; oral Dose 50 mg): 463.2704 ng·h/mL; CL/F ([4]; oral Dose 50 mg): 215856.7 mL/h; Cmax ([4]; oral Dose 50 mg): 38.271 ng/mL; T1/2 ([4]; oral Dose 50 mg): 9.753 h; Tmax ([4]; oral Dose 50 mg): 2.803 h; AUCtau ([4]; oral Dose 100 mg): 463.2704 ng·h/mL; AUCtau—24 hr ([4]; oral Dose 100 mg): 926.5407 ng·h/mL; CL/F ([4]; oral Dose 100 mg): 215856.7 mL/h; Cmax ([4]; oral Dose 100 mg): 76.5419 ng/mL; T1/2 ([4]; oral Dose 100 mg): 9.753 h; Tmax ([4]; oral Dose 100 mg): 2.803 h; AUCtau ([4]; oral Dose 150 mg): 694.9055 ng·h/mL; AUCtau—24 hr ([4]; oral Dose 150 mg): 1389.811 ng·h/mL; CL/F ([4]; oral Dose 150 mg): 215856.7 mL/h; Cmax ([4]; oral Dose 150 mg): 114.813 ng/mL; T1/2 ([4]; oral Dose 150 mg): 9.753 h; Tmax ([4]; oral Dose 150 mg): 2.803 h; AUCtau ([4]; oral Dose 200 mg): 926.5413 ng·h/mL; AUCtau—24 hr ([4]; oral Dose 200 mg): 1853 ng·h/mL; CL/F ([4]; oral Dose 200 mg): 215856.5 mL/h; Cmax ([4]; oral Dose 200 mg): 153.084 ng/mL; T1/2 ([4]; oral Dose 200 mg): 9.753 h; Tmax ([4]; oral Dose 200 mg): 2.803 h
